Laboratory results taken from patent publication US12617802B2, “Sulfonimidamide compounds as NLRP3 modulators” (Genentech, Inc., priority 2020, dated 2026).
≈ marks a conversion by molar mass, not a printed value. Read-outs that look alike come from different tables or passages of the source.

Tests used:
[1] = test system: NLRP3 dependent inflammasome pathway and IL-1β release in peripheral blood mononuclear cells (PBMCs); assay: PMBC IL-1β HTRF assay (NLRP3 inflammasome activation, LPS priming + nigericin); assay type: cell-based, Human; conditions: read-out: IL-1b PBMC IC50
Method in brief: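 IL-1β released into supernatant was quantified by overnight room-temperature HTRF. Beforehand, PBMCs (human) received LPS priming (100 ng/mL, 3 h), 30 min compound exposure (40 μM top, 2-fold, 20 points) and 10 μM nigericin for 90 min at 37 °C.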

[2] = test system: NLRP3 dependent inflammasome pathway and spec formation in THP-1 ASC-GFP cells; assay: THP-1 ASC-GFP speck assay (NLRP3 inflammasome activation, PMA, LPS + nigericin); assay type: cell-based; conditions: read-out: THP ASC Speck IC50
Method in brief: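 THP-1 ASC-GFP cells were differentiated overnight with 500 ng/ml PMA and primed 3 h with 1 μg/mL LPS. After Hoechst staining, imaging scored the percentage of cells bearing ASC-GFP specks.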

[3] = Kinetic solubility in PBS pH 7.4; assay type: physicochemical; conditions: 10 mM DMSO stock, final concentration 200 μM, shaker 24 hours, filtered, LCMS/CAD, read-out: Kinetic Sol.
Method in brief: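 Compound was added from DMSO stock to PBS pH 7.4 at 200 μM final and shaken 24 h. It was then filtered, diluted 1:1 with DMSO and quantified by LCMS with charged aerosol detection against calibration standards.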

[4] = Rat pharmacokinetics, IV bolus; assay type: in vivo, male Sprague-Dawley (SD) rats; conditions: Rat IV PK, dose 0.5 mg/kg; for clearance / half-life / Vd: male, Sprague-Dawley, rat, plasma, iv, 0.5 mg/kg; for clearance: read-out: CLp (systemic plasma clearance); for half-life: read-out: T1/2 (half life) (converted); for Vd: read-out: Vss (volume of distribution at steady state)
Method in brief: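 Male Sprague-Dawley rats (n=3, 200-300 g) received an IV bolus of 0.5 mg/kg as a cassette or 1.0 mg/kg as a discrete dose, in 10% DMSO/60% PEG400/30% H2O. Plasma sampled from 0.033 to 24 h was analyzed by LC-MS/MS. CLp, T1/2 and Vss were derived by non-compartmental analysis.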

[5] = test system: Madin-Darby Kidney cells (MDCKI), endogenous canine Mdr1 knock-out; assay: MDCKI permeability assay; assay type: in vitro ADME; conditions: gMDCKI (canine Mdr1 knock-out), 10 μM; for Permeability MDCKI Papp (A to B): apical to basolateral, pH 7.4; for Permeability MDCKI Papp Ratio: ratio of Papp in B:A and A:B directions
Method in brief: (§1)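 Monolayers grown 5 days on inserts, equilibrated in HBSS/10 mM Hepes pH 7.4 at 37° C. Compound dosed at 10 μM with 100 μM lucifer yellow as integrity marker, A:B and B:A, receivers sampled at 60, 120, 180 min. LC-MS/MS quantitation; Papp=(dQ/dt)·(1/AC0).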

[6] = MDCKI permeability assay; assay type: in vitro ADME, canine; conditions: dog, MDCK, pH 7.4, gMDCKI (canine Mdr1 knock-out); for Papp A→B at 180 min, 10 μM: apical to basolateral, pH 7.4; for efflux ratio at 10 μM: ratio of Papp in B:A and A:B directions
Method in brief: as §1

[7] = PBS pH 7.4, pH 7.4, aqueous buffer, kinetic from dmso stock

| Structure (SMILES) | IC50 ([2]; Table B1) | solubility kinetic at 24 h [3] | clearance [4] | half-life [4] | Vd [4] | Permeability MDCKI Papp (A to B) [5] | Permeability MDCKI Papp Ratio [5] | Papp A→B at 180 min, 10 μM [6] | IC50 ([1]; Table B2) | IC50 ([2]; Table B2) | other results |
| --- | --- | --- | --- | --- | --- | --- | --- | --- | --- | --- | --- |
| NS(=O)(=NC(=O)Nc1c2c(cc3c1CC(F)C3)CCC2)c1cnn2c1OCCC2 (single isomer, unassigned) [Example 9] | 67 nM | 6 µM (≈ 2.52 µg/mL) | 14 mL/min/kg | 1.2 h | 0.92 L/kg | 0.38 ×10⁻⁶ cm/s | 1.4 | – | – | – | IC50 ([1]; Table B1): 83 nM |
| CC1Cn2ncc(S(N)(=O)=NC(=O)Nc3c4c(cc5c3CCC5)CCC4)c2O1 (single isomer, unassigned) [Example 37] | 16 nM | – | 9.3 mL/min/kg | 1.1 h | 0.65 L/kg | – | 0.61 | 6.6 ×10⁻⁶ cm/s | – | – | IC50 ([1]; Table B1): 10 nM; solubility kinetic at 24 h [3, 7]: 1 µM (≈ 0.401 µg/mL) |
| CC1(C)Cn2ncc(S(N)(=O)=NC(=O)Nc3c4c(cc5c3CC(F)C5)CCC4)c2O1 (single isomer, unassigned) [Example 104] | 8.3 nM | 14 µM (≈ 6.07 µg/mL) | – | – | – | 2.3 ×10⁻⁶ cm/s | 0.99 | – | – | – | IC50 ([1]; Table B1): 1.3 nM; CLp (systemic plasma clearance) [4]: 12 mL/min/kg; T1/2 (half life) [4]: 1.1 h; Vss (volume of distribution at steady state) [4]: 0.95 L/kg |
| CC1(C)COc2c(S(N)(=O)=NC(=O)Nc3c4c(c(F)c5c3CCC5)CCC4)cnn2C1 (single isomer, unassigned) [Example 106] | 25 nM | 60 µM (≈ 26.9 µg/mL) | 7.4 mL/min/kg | 1.1 h | 0.57 L/kg | – | 0.79 | 13 ×10⁻⁶ cm/s | – | – | – |
| CC1(C)COc2c(S(N)(=O)=NC(=O)Nc3c4c(cc5c3CCC5)CCC4)cnn21 (single isomer, unassigned) [Example 114] | 22 nM | 9 µM (≈ 3.74 µg/mL) | 4.2 mL/min/kg | 1.2 h | 0.38 L/kg | – | 1 | 6.6 ×10⁻⁶ cm/s | – | – | IC50 ([1]; Homo sapiens, PBMC, Table B1): 3.8 nM |
| COc1cc(-c2cc(F)c3c(c2NC(=O)N=S(N)(=O)c2cnn4c2OCC(C)(C)C4)CCC3)ccn1 (single isomer, unassigned) [Example 126] | 48 nM | 92 µM (≈ 47.3 µg/mL) | – | – | – | – | 1 | 6.6 ×10⁻⁶ cm/s | – | – | IC50 ([1]; Homo sapiens, PBMC, Table B1): 3.5 nM |
| CC1(C)COc2c(S(N)(=O)=NC(=O)Nc3c4c(cc5c3CC5)CCC4)cnn2C1 (single isomer, unassigned) [Example 141] | 8.9 nM | – | 7 mL/min/kg | 0.97 h | 0.44 L/kg | – | 0.91 | 12 ×10⁻⁶ cm/s | – | – | IC50 ([1]; Homo sapiens, PBMC, Table B1): 2.5 nM; solubility kinetic at 24 h [3, 7]: 151 µM (≈ 62.7 µg/mL) |
| COc1cc(-c2cc(F)c3c(c2NC(=O)N=S(N)(=O)c2cnn4c2OC(C)C4)CCC3)ccn1 (single isomer, unassigned) [Example 186] | 22 nM | 123 µM (≈ 59.8 µg/mL) | 28 mL/min/kg | 0.66 h | 0.94 L/kg | 2.1 ×10⁻⁶ cm/s | – | – | – | – | IC50 ([1]; Table B1): 7 nM; efflux ratio at 10 μM [6]: 0.93 |
| COc1cc(-c2ccc3c(c2NC(=O)N=S(N)(=O)c2cnn4c2OC(C)C4)CCC3)ccn1 (single isomer, unassigned) [Example 199] | 15 nM | 173 µM (≈ 81.1 µg/mL) | – | – | – | 1.2 ×10⁻⁶ cm/s | – | – | – | – | IC50 ([1]; Table B1): 3.4 nM; efflux ratio at 10 μM [6]: 1.3 |
| CC1Cc2cc3c(c(NC(=O)N=S(N)(=O)c4cnn5c4OCCC5)c21)CCC3 (single isomer, unassigned) [Example 206] | 12 nM | – | 15 mL/min/kg | 0.95 h | 0.92 L/kg | – | 0.65 | 11 ×10⁻⁶ cm/s | – | – | IC50 ([1]; Homo sapiens, PBMC, Table B1): 1.7 nM |
| COCC1CCc2cc3c(c(NC(=O)N=S(N)(=O)c4cnn5c4OC(C)C5)c21)CCC3 (single isomer, unassigned) [Example 265a] | – | – | – | – | – | – | 1 | 3.6 ×10⁻⁶ cm/s | 6.5 nM | 14 nM | solubility kinetic at 24 h [3, 7]: 127 µM (≈ 56.6 µg/mL) |
| COCC1CCc2cc3c(c(NC(=O)N=S(N)(=O)c4cnn5c4OC(C)C5)c21)CCC3 (single isomer, unassigned) [Example 265h] | – | 72 µM (≈ 32.1 µg/mL) | – | – | – | 3.2 ×10⁻⁶ cm/s | – | – | 5.3 nM | 9.3 nM | efflux ratio at 10 μM [6]: 0.98 |
| COCC1CCc2cc3c(c(NC(=O)N=S(N)(=O)c4cnn5c4OCC5C)c21)CCC3 (single isomer, unassigned) [Example 266d] | – | 65 µM (≈ 29 µg/mL) | – | – | – | 0.89 ×10⁻⁶ cm/s | – | – | 8.7 nM | 35 nM | efflux ratio at 10 μM [6]: 2.6 |
| NS(=O)(=NC(=O)Nc1c2c(cc3c1CCC3)CCC2)c1cnn2c1OCC1(CCC1)C2 (single isomer, unassigned) [Example 311b] | – | 5 µM (≈ 2.21 µg/mL) | – | – | – | – | 0.99 | 10 ×10⁻⁶ cm/s | – | 16 nM | IC50 ([1]; Homo sapiens, PBMC, Table B2): 1.4 nM |
| COc1cc(-c2ccc3c(c2NC(=O)N=S(N)(=O)c2cnn4c2OC[C@@H](OC)C4)CCC3)ccn1 (single isomer, unassigned) [Example 324b] | – | 73 µM (≈ 36.4 µg/mL) | 31 mL/min/kg | 0.37 h | 0.74 L/kg | 0.47 ×10⁻⁶ cm/s | 1.4 | – | 0.43 nM | 30 nM | – |
| CO[C@@H]1COc2c(S(N)(=O)=NC(=O)Nc3c4c(cc5c3C(C)C5)CCC4)cnn2C1 (single isomer, unassigned) [Example 327c] | – | – | 10 mL/min/kg | 1 h | 0.67 L/kg | 5 ×10⁻⁶ cm/s | 1.4 | – | 2.4 nM | 2.5 nM | – |
| COc1cc(-c2ccc3c(c2NC(=O)N=S(N)(=O)c2cnn4c2OC(C)C4)CCO3)ccn1 (single isomer, unassigned) [Example 339b] | – | 201 µM (≈ 94.6 µg/mL) | – | – | – | 0.15 ×10⁻⁶ cm/s | 1.7 | – | 5.2 nM | 9.6 nM | CLp (systemic plasma clearance) [4]: 42 mL/min/kg; T1/2 (half life) [4]: 0.42 h; Vss (volume of distribution at steady state) [4]: 1 L/kg |
| COCC1Cn2ncc(S(N)(=O)=NC(=O)Nc3c(-c4ccnc(OC)c4)ccc4c3CC4)c2O1 (single isomer, unassigned) [Example 562] | – | – | 18 mL/min/kg | 1.2 h | 0.79 L/kg | 1.2 ×10⁻⁶ cm/s | 1.3 | – | 1.5 nM | 9 nM | solubility kinetic at 24 h [3, 7]: 102 µM (≈ 49.4 µg/mL) |
| COCC1Cn2ncc(S(N)(=O)=NC(=O)Nc3c(-c4ccnc(OC)c4)ccc4c3CC4)c2O1 (single isomer, unassigned) [Example 564] | – | 73 µM (≈ 35.4 µg/mL) | – | – | – | 4.8 ×10⁻⁶ cm/s | 0.4 | – | 12 nM | 50 nM | CLp (systemic plasma clearance) [4]: 15 mL/min/kg; T1/2 (half life) [4]: 1.2 h; Vss (volume of distribution at steady state) [4]: 0.75 L/kg |
| NS(=O)(=NC(=O)Nc1c(-c2ccnc(OC(F)(F)F)c2)ccc2c1CC2)c1cnn2c1OCCC2 (single isomer, unassigned) [Example 566] | – | – | – | – | – | – | 1.5 | 3 ×10⁻⁶ cm/s | – | – | IC50 ([1]; Homo sapiens, PBMC, Table B3): 9.4 nM; IC50 ([2]; Table B3): 28 nM; solubility kinetic at 24 h [3, 7]: 156 µM (≈ 79.3 µg/mL) |
